These results are taken from patent US7521418B2, “Use of a polyene macrolide antifungal agent in combination with a glycopeptide antibacterial agent” (Theravance, Inc., priority 2003, dated 2009).

Test in all cases: Checkerboard MIC assay, FICI
Common to all, as to settings: combination with Compound 1

One experiment relates to A. fumigatus ATCC 14110. The format is cell-based, Aspergillus fumigatus. An excerpt: (§1) The following assay was used to determine the minimum inhibitory concentration (MIC) and fractional inhibitory concentration index (FICI) for combinations of an antifungal agent and a glycopeptide antibacterial agent. This assay and methods for calculating FICI are well known in the art. See, for example, Eliopoulos, E. G. and R. Moellering, Jr. “Antimicrobial Combinations” in Antibiotics in Laboratory Medicine, edited by V. Lorian, 4th Ed., Williams & Wilkins, Baltimore, MD, pp. 330-396 (1996); […] et al., Antimicrobial Agents and Chemotherapy 47(4):1416-1418 (2003); or […] et al., Antimicrobial Agents and Chemotherapy 46(10):3323-3326 (2002). […] The MIC of the glycopeptide antibacterial agent determined from this experiment was used in FIC calculations. […]

The test system of experiment [1] is F. moniliforme ATCC 38159. The format is cell-based, Fusarium moniliforme.
Description: as §1

Experiment [2] relates to M. circinelloides ATCC 26759. The format is cell-based, Mucor circinelloides.
Description: as §1

Regarding `C[C@@H]1[C@H](O)[C@@H](C)/C=C/C=C/C=C/C=C/C=C/C=C/C=C/[C@H](O[C@@H]2O[C@H](C)[C@@H](O)[C@H](N)[C@@H]2O)C[C@@H]2O[C@](O)(C[C@@H](O)C[C@@H](O)[C@H](O)CC[C@@H](O)C[C@@H](O)CC(=O)O[C@H]1C)C[C@H](O)[C@H]2C(=O)O` [Amphotericin B], the FICI in the experiment on A. fumigatus ATCC 14110 turned out to be 0.31; in experiment [1], 0.53; in experiment [2] it was 0.26.

In the case of `C[C@@H]1[C@H](O)[C@@H](C)/C=C/C=C/CC/C=C/C=C/C=C/C=C/C(O[C@H]2O[C@H](C)[C@@H](O)[C@H](N)[C@@H]2O)CC2O[C@](O)(CC(O)C(O)CCC(O)CC(O)CC(O)CC(=O)O[C@H]1C)CC(O)C2C(=O)O` (stereo partly drawn) [Nystatin], the results for the FICI (in the experiment with A. fumigatus ATCC 14110; in experiment [1]; in experiment [2]) were 1.25, 0.51 and 0.28, respectively.
